Data: ChEMBL document CHEMBL1201862, “PubChem BioAssay data set” (2004)
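Protocol summary: plate cells (96-well), add compound at 5 concentrations, incubate 48 h, interpolate endpoints linearly. GI50 is the concentration that inhibits growth by half.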 The source made the active and inactive calls. Cut-off read from the data, not from the text of the source: active = GI50 up to about 1.1 µM and inactive = higher.

How the values were obtained:
Experiment in all cases: inhibition of tumour cell growth, NCI panel, 48 h
786-0 = test system: 786-0
A498 = test system: A498
HOP-62 = test system: HOP-62
HOP-92 = test system: HOP-92
Hs-578T = test system: Hs-578T
IGROV-1 = test system: IGROV-1
K562 = test system: K562
KM12 = test system: KM12
MDA-MB-435 = test system: MDA-MB-435
NCI-H226 = test system: NCI-H226
NCI-H460 = test system: NCI-H460
OVCAR-3 = test system: OVCAR-3
PC-3 = test system: PC-3
RPMI-8226 = test system: RPMI-8226
SF-539 = test system: SF-539
SK-MEL-2 = test system: SK-MEL-2
SK-OV-3 = test system: SK-OV-3
SNB-75 = test system: SNB-75
TK-10 = test system: TK-10
UO-31 = test system: UO-31

Measured: GI50

CC(=O)O[C@H]1CC[C@@]2(C)C(=CC[C@H]3[C@@H]4C[C@H](N5CCOCC5)[C@H](OC(C)=O)[C@@]4(C)CC[C@@H]32)C1
inactive: 786-0 > 100 µM | A498 > 100 µM | HOP-62 > 100 µM | HOP-92 > 100 µM | Hs-578T > 100 µM | IGROV-1 > 100 µM | K562 25.4 µM | KM12 > 100 µM | MDA-MB-435 > 100 µM | NCI-H226 > 100 µM | NCI-H460 > 100 µM | OVCAR-3 > 100 µM | PC-3 > 100 µM | RPMI-8226 92.5 µM | SF-539 78 µM | SK-MEL-2 > 100 µM | SK-OV-3 > 100 µM | SNB-75 71.6 µM | TK-10 > 100 µM | UO-31 > 100 µM

O=C1CN2C(c3ccccc3)=NN(c3ccc([N+](=O)[O-])cc3)C2(c2ccccc2)c2cc(Cl)ccc2N1CC1CC1 (stereo not given)
inactive: 786-0 > 100 µM | A498 > 100 µM | HOP-62 > 100 µM | HOP-92 > 100 µM | Hs-578T > 100 µM | IGROV-1 > 100 µM | K562 > 100 µM | KM12 > 100 µM | MDA-MB-435 > 100 µM | NCI-H226 > 100 µM | NCI-H460 > 100 µM | OVCAR-3 > 100 µM | PC-3 7.6 µM | RPMI-8226 29 µM | SF-539 > 100 µM | SK-OV-3 > 100 µM | SNB-75 > 100 µM | TK-10 > 100 µM | UO-31 > 100 µM

O=c1n(CCCN2CCOCC2)nc2n1-c1ccc3ccccc3c1SC2
inactive: 786-0 16 µM | A498 89.9 µM | HOP-62 52.2 µM | HOP-92 > 100 µM | Hs-578T 37.6 µM | IGROV-1 > 100 µM | K562 67.1 µM | KM12 47.3 µM | MDA-MB-435 49 µM | NCI-H226 > 100 µM | NCI-H460 30.2 µM | OVCAR-3 95.7 µM | PC-3 38.6 µM | RPMI-8226 45.2 µM | SF-539 39.6 µM | SK-MEL-2 65.8 µM | SK-OV-3 63.2 µM | SNB-75 47.8 µM | TK-10 84.1 µM | UO-31 20.6 µM

CC(=O)O[C@@H]1[C@@H](C)[C@]2(CC(c3ccoc3)OC2O)C2CCC3O[C@]3(C)[C@]2(C)[C@@H]1OC(C)=O (stereo not given in full)
inactive: 786-0 19.2 µM | A498 95.1 µM | HOP-92 34 µM | Hs-578T 48.5 µM | IGROV-1 41.8 µM | KM12 23.8 µM | MDA-MB-435 43.6 µM | NCI-H226 27.7 µM | NCI-H460 29.7 µM | OVCAR-3 42 µM | PC-3 32.8 µM | RPMI-8226 25.9 µM | SF-539 22.7 µM | SK-MEL-2 57.4 µM | SK-OV-3 > 100 µM | SNB-75 46.7 µM | TK-10 47.5 µM | UO-31 37.2 µM

O=C(O)[C@H]1NC[C@@H]2ON=C(Br)[C@@H]21
inactive: 786-0 > 100 µM | A498 > 100 µM | HOP-62 > 100 µM | HOP-92 > 100 µM | Hs-578T > 100 µM | IGROV-1 > 100 µM | K562 > 100 µM | KM12 > 100 µM | MDA-MB-435 > 100 µM | NCI-H226 > 100 µM | NCI-H460 > 100 µM | OVCAR-3 > 100 µM | PC-3 > 100 µM | RPMI-8226 > 100 µM | SF-539 > 100 µM | SK-MEL-2 > 100 µM | SK-OV-3 > 100 µM | SNB-75 > 100 µM | TK-10 > 100 µM | UO-31 > 100 µM

O=C1Nc2c(Cl)cc(Cl)cc2/C1=N/N=C/c1ccco1
inactive: 786-0 38.8 µM | A498 21.2 µM | HOP-62 34.7 µM | HOP-92 27.4 µM | Hs-578T 32.7 µM | IGROV-1 27.5 µM | K562 31.4 µM | KM12 25.4 µM | MDA-MB-435 29.9 µM | NCI-H226 23 µM | NCI-H460 28.2 µM | OVCAR-3 24.7 µM | PC-3 29.8 µM | SF-539 29.1 µM | SK-MEL-2 24.4 µM | SK-OV-3 67.3 µM | SNB-75 10.5 µM | TK-10 48.5 µM | UO-31 20.5 µM

Cc1cc(O)c2c(c1)C[C@@H](O)C1=C2C(=O)c2c(O)ccc(OC3CC(O)C(OC4CC(OC5CCC(OC6CC(O)C(OC7CC(OC8CCC(O)C(C)O8)C(O)C(C)O7)C(C)O6)C(C)O5)C(O)C(C)O4)C(C)O3)c2C1=O (stereo not given in full)
active: 786-0 0.0644 µM | A498 0.373 µM | HOP-62 0.232 µM | HOP-92 0.178 µM | Hs-578T 0.0311 µM | IGROV-1 0.176 µM | K562 0.0653 µM | KM12 0.0998 µM | MDA-MB-435 0.135 µM | NCI-H226 0.268 µM | NCI-H460 0.238 µM | OVCAR-3 0.0641 µM | PC-3 0.223 µM | RPMI-8226 0.0265 µM | SF-539 0.0716 µM | SK-MEL-2 0.0577 µM | SNB-75 0.0573 µM | TK-10 0.184 µM | UO-31 0.156 µM
